Among the test systems are TK-10; NCI-H226; OVCAR-5; KM12; CAKI-1; UO-31; OVCAR-3; CCRF-CEM; SN12C; OVCAR-8; U-251; SK-MEL-2; EKVX; SNB-75; HOP-62; RXF 393.
What all share (assay): inhibition of tumour cell growth, NCI panel, 48 h

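Each compound was tested at five concentrations against cells in 96-well plates for 48 hours. At the GI50, growth is halved.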 Active and inactive are the calls of the source. Cut-off read from the data, not from the text of the source: active = GI50 up to about 1.1 µM and inactive = higher.

As to `Cc1nc2c(=O)[nH]c(=O)nc-2n(CCO)c1C`, the GI50 in the assay on TK-10, in the assay on NCI-H226, in the assay with OVCAR-5, with KM12, with CAKI-1 and in the assay with UO-31 was > 100 µM (inactive) each time. The GI50 in the assay on OVCAR-3, with CCRF-CEM, with SN12C, in the assay on OVCAR-8, with U-251 and in the assay with SK-MEL-2 was > 100 µM (inactive) throughout. Besides, the GI50 with EKVX is > 100 µM (inactive); in the assay on SNB-75 it was 82 µM (inactive); in the assay on HOP-62, > 100 µM (inactive); in the assay with RXF 393, > 100 µM (inactive).

For `CN(C)c1ccc(C2CC(c3ccc4ccccc4c3O)=NN2)cc1` (stereo unspecified), the GI50 in the assay on TK-10 is 56.4 µM (inactive); with NCI-H226, 41.5 µM (inactive); with OVCAR-5 it was 80.7 µM (inactive); in the assay with KM12 it was 39.5 µM (inactive); in the assay with CAKI-1 it was 40.6 µM (inactive); with UO-31, 30.1 µM (inactive). Moreover, the GI50 in the assay with OVCAR-3 is 18 µM (inactive); in the assay with CCRF-CEM, 17.9 µM (inactive); in the assay with SN12C, 33.2 µM (inactive); in the assay on OVCAR-8, 32.4 µM (inactive); with U-251 it was 33.6 µM (inactive); in the assay with SK-MEL-2, 35.7 µM (inactive). The GI50 with SNB-75 is 37 µM (inactive); in the assay on HOP-62, 31 µM (inactive); with RXF 393, 36.1 µM (inactive).

Take `O=C1OC(C2=CC(=O)c3ccccc3C2=O)C(Cl)=C1Cl` (stereo unspecified): the GI50 in the assay with TK-10 was 66.7 µM (inactive); in the assay with NCI-H226, 27.2 µM (inactive); in the assay on OVCAR-5 it was 36.3 µM (inactive); with KM12, 77.4 µM (inactive); in the assay with CAKI-1, 67.9 µM (inactive); in the assay with UO-31 it was 13.7 µM (inactive). In addition, the GI50 in the assay on OVCAR-3 is 33.1 µM (inactive); in the assay with CCRF-CEM it was 20 µM (inactive); with SN12C, 18.3 µM (inactive); in the assay with OVCAR-8, 13.7 µM (inactive); with U-251, 28.1 µM (inactive); in the assay with SK-MEL-2, 14.1 µM (inactive). Besides, the GI50 was 37.8 µM (inactive) with EKVX, 37.2 µM (inactive) in the assay with SNB-75, 33.1 µM (inactive) in the assay with HOP-62 and 25.2 µM (inactive) with RXF 393.

Take `COC(=O)[C@H]1[C@H](OC(=O)[C@@H](OC)c2ccccc2)ON2CC[C@@H](OC(=O)c3ccccc3)[C@H]12`: the GI50 in the assay with TK-10 was > 100 µM (inactive); in the assay on NCI-H226, > 100 µM (inactive); in the assay on OVCAR-5, > 100 µM (inactive); with KM12, > 100 µM (inactive); in the assay with CAKI-1, 45.2 µM (inactive); in the assay on UO-31, > 100 µM (inactive). For the same compound, the GI50 was > 100 µM (inactive) in the assay with CCRF-CEM; 78 µM (inactive) in the assay on SN12C; 61.4 µM (inactive) with OVCAR-8; 70.1 µM (inactive) in the assay on U-251; 48.1 µM (inactive) in the assay on SK-MEL-2; > 100 µM (inactive) in the assay on EKVX. For the same compound, the GI50 was 29 µM (inactive) with SNB-75, 35.1 µM (inactive) with HOP-62 and 64.4 µM (inactive) in the assay with RXF 393.

With `OCC1c2ccccc2-n2nc(-c3ccccc3)c(O)c21` (stereo unspecified), the GI50 in the assay on TK-10 was 19.9 µM (inactive); in the assay on NCI-H226, 79.4 µM (inactive); in the assay on OVCAR-5, > 100 µM (inactive); in the assay with KM12, 18.4 µM (inactive); with CAKI-1 it was 17.8 µM (inactive); with UO-31 it was 22.8 µM (inactive). For the same compound, the GI50 was 26.7 µM (inactive) in the assay with OVCAR-3; 28.6 µM (inactive) in the assay on CCRF-CEM; 17.6 µM (inactive) in the assay on SN12C; 18.5 µM (inactive) in the assay with OVCAR-8; 19.4 µM (inactive) in the assay with U-251; 15.9 µM (inactive) in the assay on SK-MEL-2. Besides, the GI50 with EKVX is 29.2 µM (inactive); with SNB-75, 68.9 µM (inactive); in the assay on HOP-62, 41.9 µM (inactive); with RXF 393, 17.7 µM (inactive).

On to `CN(C)c1ccc(C(Cc2ccccc2)C2NC(=S)NC2=O)cc1` (stereo unspecified), for which the GI50 with TK-10, with NCI-H226, with OVCAR-5, with KM12, in the assay with CAKI-1 and with UO-31 was > 100 µM (inactive) throughout. The GI50 is > 100 µM (inactive) with OVCAR-3; > 100 µM (inactive) in the assay with CCRF-CEM; > 100 µM (inactive) in the assay with SN12C; > 100 µM (inactive) in the assay with OVCAR-8; > 94 µM (inactive) in the assay with U-251; > 100 µM (inactive) in the assay on SK-MEL-2. Further, the GI50 in the assay with EKVX, in the assay with SNB-75, in the assay on HOP-62 and in the assay with RXF 393 was > 100 µM (inactive) in each case.

Turning to `CCc1nc(N)nc(N)c1-c1ccc(Cc2ccccc2)c([N+](=O)[O-])c1`, the GI50 with TK-10 is 29.5 µM (inactive); with NCI-H226, 27.6 µM (inactive); in the assay on OVCAR-5 it was > 55 µM (inactive); in the assay with KM12, 0.0762 µM (active); with CAKI-1 it was 0.0183 µM (active); in the assay with UO-31, 0.124 µM (active). Besides, the GI50 in the assay with OVCAR-3 was 0.873 µM (active); with CCRF-CEM, < 0.01 µM (active); in the assay on SN12C, 0.247 µM (active); with OVCAR-8, < 0.0153 µM (active); in the assay on U-251, < 0.0178 µM (active); with SK-MEL-2, 33.9 µM (inactive). Moreover, the GI50 with EKVX was 5.53 µM (inactive); in the assay on SNB-75, 23.3 µM (inactive); with HOP-62, 0.173 µM (active); with RXF 393 it was 24.5 µM (inactive).

Turning to `C=CCC1CC(n2cc(C)c(=O)[nH]c2=O)OC1CO[Si](C)(C)C(C)(C)C` (stereo unspecified), the GI50 with TK-10 was 15.8 µM (inactive); in the assay with NCI-H226, 13.2 µM (inactive); in the assay on OVCAR-5, 17.3 µM (inactive); in the assay on KM12, 12 µM (inactive); in the assay on CAKI-1, 13.7 µM (inactive); with UO-31, 11.4 µM (inactive). Also, the GI50 with OVCAR-3 was 15.9 µM (inactive); in the assay on CCRF-CEM it was 12.1 µM (inactive); in the assay with SN12C, 15 µM (inactive); in the assay with OVCAR-8, 15.1 µM (inactive); in the assay on U-251, 13.6 µM (inactive); in the assay on SK-MEL-2 it was 15.5 µM (inactive). Further, the GI50 with EKVX was 7.52 µM (inactive); in the assay on SNB-75, 11.8 µM (inactive); with HOP-62 it was 18.3 µM (inactive); with RXF 393, 4.06 µM (inactive).

`c1ccc2c(c1)c(N1CCCCC1)cc1nc3c(cc(N4CCCCC4)c4ccccc43)nc12`: the GI50 in the assay on NCI-H226, in the assay on OVCAR-5, in the assay with KM12, in the assay with CAKI-1, in the assay on UO-31 and in the assay with OVCAR-3 was > 100 µM (inactive) in each case. Besides, the GI50 in the assay with CCRF-CEM, in the assay on SN12C, with OVCAR-8, with U-251, with SK-MEL-2 and in the assay on EKVX was > 100 µM (inactive) in each case. Also, the GI50 in the assay with SNB-75 is 11.9 µM (inactive); with HOP-62, > 100 µM (inactive); in the assay on RXF 393, > 100 µM (inactive).

Source of the values: ChEMBL document CHEMBL1201862, “PubChem BioAssay data set” (2004).
